{"source": "patent US20190240236A1", "about": "“ORAL TESTOSTERONE UNDECANOATE THERAPY” (Lipocine Inc., priority 2016, published 2019)", "assay": "Clinic Study of Testosterone Therapy for hypogonadal males: serum T Cavg and Cmax after oral TU fixed dose regimens", "assay_type": "in vivo, human", "conditions": "for Cavg > 300 ng/dL ≥75% patients / Cavg > 300 ng/dL ≥80% patients: with food (at least 10 g fat)", "experimental": "Fixed Dose Dosing Regimen Examples Based on Study Described Below for Estimated or Actual Cavg (Administered with Food with at Least 10 g of Fat)\nThe dosage form from Example B of Composition 4 with dosing regimen (Regimen #9-16) of dosing category BID-equal dose with daily dose range 150-600 mg were used for a Clinic Study of Testosterone Therapy for hypogonadal males.\nThe clinical study was a randomized double-blind, placebo-controlled dose escalating study of the safety, efficacy, tolerability, and pharmacokinetics of testosterone therapy in hypogonadal males. This clinic study was a single and multiple, ascending-dose study that was designed to determine the optimal starting, titration (if appropriate), or single fixed dose for safety and efficacy targeted by the US FDA. The study also verified the time for testosterone levels to reach steady state and identified a suitable fixed dose dosing regimen that satisfies an unmet need for safety and efficacy for oral TT.\nThis study was carried out with conditions of a single-center, randomized, double-blind, placebo-controlled, ascending multiple-dose, and serial-group in adult hypogonadal male subjects. The objectives of this study were: • a) To assess the safety, efficacy, and tolerability of escalating single and multiple oral doses of TU dosage forms in hypogonadal males • b) To determine the pharmacokinetics (PK) of testosterone (T), DHT, TU, DHTU, and estradiol (E2) after single and multiple oral doses of TU dosage forms in hypogonadal males • C) To identify a fixed dose dosing regimen satisfying US FDA targets, without needing to titrate, for restoring serum T levels in hypogonadal males to the normal T range.\nThe dosing regimen for this clinical study ranged from 150 mg daily dose (75 mg BID dose) to 600 mg daily dose (300 mg BID dose). Observed pharmacokinetic parameters (T, DHT, TU, DHTU, and E2) after single and multiple oral doses of TU dosage forms in the patients were recorded in connection with each daily dose listed in the report.\nThe overall analyzed results of this clinical study were plotted according to % of patients for safety (Cmax<1,500 ng/dL) and efficacy (Cavg>300 ng/dL) with a variety of dosing regimens. Note that only doses that were multiples of 75 mg were tested in the clinical study, the results predicted for the other doses are estimated from these values.", "key": {"[1]": {"conditions": "Daily dose 410 mg, each BID dose 205 mg"}, "[2]": {"conditions": "Daily dose 420 mg, each BID dose 210 mg"}, "[3]": {"conditions": "Daily dose 430 mg, each BID dose 215 mg"}, "[4]": {"conditions": "Daily dose 438 mg, each BID dose 219 mg"}, "[5]": {"conditions": "Daily dose 450 mg, each BID dose 225 mg"}, "[6]": {"conditions": "Daily dose 460 mg, each BID dose 230 mg"}, "[7]": {"conditions": "Daily dose 474 mg, each BID dose 237 mg"}, "[8]": {"conditions": "Daily dose 480 mg, each BID dose 240 mg"}, "[9]": {"conditions": "Daily dose 490 mg, each BID dose 245 mg"}, "[10]": {"conditions": "Daily dose 500 mg, each BID dose 250 mg"}, "[11]": {"conditions": "Daily dose 518 mg, each BID dose 259 mg"}, "[12]": {"conditions": "Regimen 1, TID-equal dose, TU 75/75/75 mg"}, "[13]": {"conditions": "Regimen 2, TID-equal dose, TU 112/112/112 mg"}, "[14]": {"conditions": "Regimen 3, TID-equal dose, TU 125/125/125 mg"}, "[15]": {"conditions": "Regimen 4, TID-equal dose, TU 150/150/150 mg"}, "[16]": {"conditions": "Regimen 5, TID-equal dose, TU 188/188/188 mg"}, "[17]": {"conditions": "Regimen 6, TID-equal dose, TU 225/225/225 mg"}, "[18]": {"conditions": "Regimen 7, TID-equal dose, TU 237/237/237 mg"}, "[19]": {"conditions": "Regimen 8, TID-equal dose, TU 250/250/250 mg"}, "[20]": {"conditions": "Regimen 9, BID-equal dose (AM/PM), TU 75/75 mg"}, "[21]": {"conditions": "Regimen 10, BID-equal dose (AM/PM), TU 150/150 mg"}, "[22]": {"conditions": "Regimen 11, BID-equal dose (AM/PM), TU 215/215 mg"}, "[23]": {"conditions": "Regimen 12, BID-equal dose (AM/PM), TU 225/225 mg"}, "[24]": {"conditions": "Regimen 13, BID-equal dose (AM/PM), TU 237/237 mg"}, "[25]": {"conditions": "Regimen 14, BID-equal dose (AM/PM), TU 250/250 mg"}, "[26]": {"conditions": "Regimen 15, BID-equal dose (AM/PM), TU 265/265 mg"}, "[27]": {"conditions": "Regimen 16, BID-equal dose (AM/PM), TU 300/300 mg"}, "[28]": {"conditions": "Regimen 17, BID-different dose (AM/PM), TU 75/225 mg"}, "[29]": {"conditions": "Regimen 18, BID-different dose (AM/PM), TU 75/300 mg"}, "[30]": {"conditions": "Regimen 19, BID-different dose (AM/PM), TU 150/225 mg"}, "[31]": {"conditions": "Regimen 20, BID-different dose (AM/PM), TU 225/150 mg"}, "[32]": {"conditions": "Regimen 21, BID-different dose (AM/PM), TU 225/300 mg"}, "[33]": {"conditions": "Regimen 22, BID-different dose (AM/PM), TU 300/75 mg"}, "[34]": {"conditions": "Regimen 23, BID-different dose (AM/PM), TU 300/150 mg"}, "[35]": {"conditions": "Regimen 24, BID-different dose (AM/PM), TU 300/225 mg"}}, "data": [{"smiles": "CCCCCCCCCCC(=O)O[C@H]1CC[C@H]2[C@@H]3CCC4=CC(=O)CC[C@]4(C)[C@H]3CC[C@]12C", "note": "[TU, testosterone undecanoate]", "values": [{"measurement": "% with Cavg/day > 300 ng/dL", "setting": "[1]", "value": 71.5, "unit": "%"}, {"measurement": "% with Cmax/dose < 1,500 ng/dL", "setting": "[1]", "value": 93.7, "unit": "%"}, {"measurement": "% with Cavg/day > 300 ng/dL", "setting": "[2]", "value": 74.9, "unit": "%"}, {"measurement": "% with Cmax/dose < 1,500 ng/dL", "setting": "[2]", "value": 92.8, "unit": "%"}, {"measurement": "% with Cavg/day > 300 ng/dL", "setting": "[3]", "value": 77.6, "unit": "%"}, {"measurement": "% with Cmax/dose < 1,500 ng/dL", "setting": "[3]", "value": 92.1, "unit": "%"}, {"measurement": "% with Cavg/day > 300 ng/dL", "setting": "[4]", "value": 80.0, "unit": "%"}, {"measurement": "% with Cmax/dose < 1,500 ng/dL", "setting": "[4]", "value": 91.2, "unit": "%"}, {"measurement": "% with Cavg/day > 300 ng/dL", "setting": "[5]", "value": 83.5, "unit": "%"}, {"measurement": "% with Cmax/dose < 1,500 ng/dL", "setting": "[5]", "value": 89.9, "unit": "%"}, {"measurement": "% with Cavg/day > 300 ng/dL", "setting": "[6]", "value": 85.6, "unit": "%"}, {"measurement": "% with Cmax/dose < 1,500 ng/dL", "setting": "[6]", "value": 88.9, "unit": "%"}, {"measurement": "% with Cavg/day > 300 ng/dL", "setting": "[7]", "value": 88.9, "unit": "%"}, {"measurement": "% with Cmax/dose < 1,500 ng/dL", "setting": "[7]", "value": 86.8, "unit": "%"}, {"measurement": "% with Cavg/day > 300 ng/dL", "setting": "[8]", "value": 90.0, "unit": "%"}, {"measurement": "% with Cmax/dose < 1,500 ng/dL", "setting": "[8]", "value": 86.1, "unit": "%"}, {"measurement": "% with Cavg/day > 300 ng/dL", "setting": "[9]", "value": 91.7, "unit": "%"}, {"measurement": "% with Cmax/dose < 1,500 ng/dL", "setting": "[9]", "value": 84.6, "unit": "%"}, {"measurement": "% with Cavg/day > 300 ng/dL", "setting": "[10]", "value": 93.0, "unit": "%"}, {"measurement": "% with Cmax/dose < 1,500 ng/dL", "setting": "[10]", "value": 83.2, "unit": "%"}, {"measurement": "% with Cavg/day > 300 ng/dL", "setting": "[11]", "value": 95.2, "unit": "%"}, {"measurement": "% with Cmax/dose < 1,500 ng/dL", "setting": "[11]", "value": 80.0, "unit": "%"}, {"measurement": "Cavg > 300 ng/dL ≥75% patients", "setting": "[12]", "value": "No"}, {"measurement": "Cavg > 300 ng/dL ≥80% patients", "setting": "[12]", "value": "No"}, {"measurement": "Cavg > 300 ng/dL ≥75% patients", "setting": "[13]", "value": "No"}, {"measurement": "Cavg > 300 ng/dL ≥80% patients", "setting": "[13]", "value": "No"}, {"measurement": "Cavg > 300 ng/dL ≥75% patients", "setting": "[14]", "value": "No"}, {"measurement": "Cavg > 300 ng/dL ≥80% patients", "setting": "[14]", "value": "No"}, {"measurement": "Cavg > 300 ng/dL ≥75% patients", "setting": "[15]", "value": "Yes"}, {"measurement": "Cavg > 300 ng/dL ≥80% patients", "setting": "[15]", "value": "Yes"}, {"measurement": "Cavg > 300 ng/dL ≥75% patients", "setting": "[16]", "value": "Yes"}, {"measurement": "Cavg > 300 ng/dL ≥80% patients", "setting": "[16]", "value": "Yes"}, {"measurement": "Cavg > 300 ng/dL ≥75% patients", "setting": "[17]", "value": "Yes"}, {"measurement": "Cavg > 300 ng/dL ≥80% patients", "setting": "[17]", "value": "Yes"}, {"measurement": "Cavg > 300 ng/dL ≥75% patients", "setting": "[18]", "value": "Yes"}, {"measurement": "Cavg > 300 ng/dL ≥80% patients", "setting": "[18]", "value": "Yes"}, {"measurement": "Cavg > 300 ng/dL ≥75% patients", "setting": "[19]", "value": "Yes"}, {"measurement": "Cavg > 300 ng/dL ≥80% patients", "setting": "[19]", "value": "Yes"}, {"measurement": "Cavg > 300 ng/dL ≥75% patients", "setting": "[20]", "value": "No"}, {"measurement": "Cavg > 300 ng/dL ≥80% patients", "setting": "[20]", "value": "No"}, {"measurement": "Cavg > 300 ng/dL ≥75% patients", "setting": "[21]", "value": "No"}, {"measurement": "Cavg > 300 ng/dL ≥80% patients", "setting": "[21]", "value": "No"}, {"measurement": "Cavg > 300 ng/dL ≥75% patients", "setting": "[22]", "value": "Yes"}, {"measurement": "Cavg > 300 ng/dL ≥80% patients", "setting": "[22]", "value": "No"}, {"measurement": "Cavg > 300 ng/dL ≥75% patients", "setting": "[23]", "value": "Yes"}, {"measurement": "Cavg > 300 ng/dL ≥80% patients", "setting": "[23]", "value": "Yes"}, {"measurement": "Cavg > 300 ng/dL ≥75% patients", "setting": "[24]", "value": "Yes"}, {"measurement": "Cavg > 300 ng/dL ≥80% patients", "setting": "[24]", "value": "Yes"}, {"measurement": "Cavg > 300 ng/dL ≥75% patients", "setting": "[25]", "value": "Yes"}, {"measurement": "Cavg > 300 ng/dL ≥80% patients", "setting": "[25]", "value": "Yes"}, {"measurement": "Cavg > 300 ng/dL ≥75% patients", "setting": "[26]", "value": "Yes"}, {"measurement": "Cavg > 300 ng/dL ≥80% patients", "setting": "[26]", "value": "Yes"}, {"measurement": "Cavg > 300 ng/dL ≥75% patients", "setting": "[27]", "value": "Yes"}, {"measurement": "Cavg > 300 ng/dL ≥80% patients", "setting": "[27]", "value": "Yes"}, {"measurement": "Cavg > 300 ng/dL ≥75% patients", "setting": "[28]", "value": "No"}, {"measurement": "Cavg > 300 ng/dL ≥80% patients", "setting": "[28]", "value": "No"}, {"measurement": "Cavg > 300 ng/dL ≥75% patients", "setting": "[29]", "value": "No"}, {"measurement": "Cavg > 300 ng/dL ≥80% patients", "setting": "[29]", "value": "No"}, {"measurement": "Cavg > 300 ng/dL ≥75% patients", "setting": "[30]", "value": "No"}, {"measurement": "Cavg > 300 ng/dL ≥80% patients", "setting": "[30]", "value": "No"}, {"measurement": "Cavg > 300 ng/dL ≥75% patients", "setting": "[31]", "value": "Yes"}, {"measurement": "Cavg > 300 ng/dL ≥80% patients", "setting": "[31]", "value": "No"}, {"measurement": "Cavg > 300 ng/dL ≥75% patients", "setting": "[32]", "value": "Yes"}, {"measurement": "Cavg > 300 ng/dL ≥80% patients", "setting": "[32]", "value": "Yes"}, {"measurement": "Cavg > 300 ng/dL ≥75% patients", "setting": "[33]", "value": "No"}, {"measurement": "Cavg > 300 ng/dL ≥80% patients", "setting": "[33]", "value": "No"}, {"measurement": "Cavg > 300 ng/dL ≥75% patients", "setting": "[34]", "value": "Yes"}, {"measurement": "Cavg > 300 ng/dL ≥80% patients", "setting": "[34]", "value": "Yes"}, {"measurement": "Cavg > 300 ng/dL ≥75% patients", "setting": "[35]", "value": "Yes"}, {"measurement": "Cavg > 300 ng/dL ≥80% patients", "setting": "[35]", "value": "Yes"}, {"measurement": "US FDA T level targets for safety and efficacy", "setting": "fixed dose regimen, 430 mg TU daily dose (215 mg BID-equal dose) to 480 mg TU daily dose (240 mg BID-equal dose), no titration", "value": "can satisfy US FDA T level targets for safety and efficacy without titration"}]}]}
